Columns and labels:
[1] = test system: Tyrosyl-tRNA synthetase (Staphylococcus aureus); assay: Inhibitory activity of compound against tyrosyl tRNA synthetase from Staphylococcus aureus was determined up to 3 uM; IA means Inactive
[2] = target: T1, Tyrosine--tRNA ligase, cytoplasmic (Homo sapiens) (UniProt P54577); assay: Percentage inhibitory activity of compound against tyrosyl tRNA synthetase from mammalian cells was determined at 3 uM
T1 sequence (whole entry): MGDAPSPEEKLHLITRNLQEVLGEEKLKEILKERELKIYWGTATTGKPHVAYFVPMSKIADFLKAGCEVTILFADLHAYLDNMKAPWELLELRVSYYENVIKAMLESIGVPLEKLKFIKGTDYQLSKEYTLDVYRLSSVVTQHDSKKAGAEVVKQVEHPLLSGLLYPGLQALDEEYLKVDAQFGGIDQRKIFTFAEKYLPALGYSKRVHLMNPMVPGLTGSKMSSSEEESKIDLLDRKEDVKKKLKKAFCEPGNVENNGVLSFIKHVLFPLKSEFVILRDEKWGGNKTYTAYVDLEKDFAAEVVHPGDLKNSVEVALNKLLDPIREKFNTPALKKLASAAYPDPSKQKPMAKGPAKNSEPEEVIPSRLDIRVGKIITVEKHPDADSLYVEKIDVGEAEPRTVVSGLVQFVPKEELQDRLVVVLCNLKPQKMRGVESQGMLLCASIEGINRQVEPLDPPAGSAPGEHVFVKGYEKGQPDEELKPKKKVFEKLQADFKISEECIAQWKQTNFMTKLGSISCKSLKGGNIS

IC50 [1]	inhibition [2] [%]	SMILES
Not Active	–	N[C@@H](Cc1ccc(O)cc1)C(=O)N[C@H](C(=O)O)[C@@H]1[C@@H](O)[C@H](O)[C@H](O)CN1O
Not Active	–	N[C@@H](Cc1ccc(O)cc1)C(=O)N[C@@H](C(=O)O)[C@@H]1[C@@H](O)[C@H](O)[C@H](O)CN1O
–	11	N[C@@H](Cc1ccc(O)cc1)C(=O)N[C@H](C(=O)O)[C@H]1[C@H](O)[C@@H](O)[C@@H](O)CN1O

Reference: ChEMBL document CHEMBL1133494, “Inhibitors of bacterial tyrosyl tRNA synthetase: synthesis of four stereoisomeric analogues of the natural product SB-219383” (Bioorg Med Chem Lett, 2000)
